Source: publication PMC9851200, “Multiparameter phenotypic screening for endogenous TFEB and TFE3 translocation identifies novel chemical series modulating lysosome function” (Autophagy, 2022)
Entries after “also recorded” stand apart in the source; their conditions may differ. Like-named read-outs stand apart in the source and are kept apart here.

Key:
endogenous TFE3 = assay: TFE3 nuclear translocation, immunocytochemistry high-content imaging; format: cell-based; settings: for TFE3 %: PKIS2 primary screening; for nTFE3 %: primary screen, 1 µM; for nTFE3 % / TFE3 translocation (in words) / EC50 / Best-Fit Values Span: SH-SY5Y; for Best-Fit Values Span: TFE3 assay concentration response; for Summary: activity in TFE3 assays compared with original NK-140, OT activity
SH-SY5Y cells [1] = settings: for DQ Intensity / DQ Spot: PKIS2 primary screening; for DQ Intensity: DQ Red BSA intensity; for DQ Spot: DQ Red BSA spot count
Description: The PKIS2 Library was supplied by The Structural Genomics Consortium at the University of North Carolina at Chapel Hill.

PRKD1 = biological target: T1, PRKD1 (Homo sapiens, UniProt Q15139); settings: cited from earlier work
T1 sequence (Q15139 1-912): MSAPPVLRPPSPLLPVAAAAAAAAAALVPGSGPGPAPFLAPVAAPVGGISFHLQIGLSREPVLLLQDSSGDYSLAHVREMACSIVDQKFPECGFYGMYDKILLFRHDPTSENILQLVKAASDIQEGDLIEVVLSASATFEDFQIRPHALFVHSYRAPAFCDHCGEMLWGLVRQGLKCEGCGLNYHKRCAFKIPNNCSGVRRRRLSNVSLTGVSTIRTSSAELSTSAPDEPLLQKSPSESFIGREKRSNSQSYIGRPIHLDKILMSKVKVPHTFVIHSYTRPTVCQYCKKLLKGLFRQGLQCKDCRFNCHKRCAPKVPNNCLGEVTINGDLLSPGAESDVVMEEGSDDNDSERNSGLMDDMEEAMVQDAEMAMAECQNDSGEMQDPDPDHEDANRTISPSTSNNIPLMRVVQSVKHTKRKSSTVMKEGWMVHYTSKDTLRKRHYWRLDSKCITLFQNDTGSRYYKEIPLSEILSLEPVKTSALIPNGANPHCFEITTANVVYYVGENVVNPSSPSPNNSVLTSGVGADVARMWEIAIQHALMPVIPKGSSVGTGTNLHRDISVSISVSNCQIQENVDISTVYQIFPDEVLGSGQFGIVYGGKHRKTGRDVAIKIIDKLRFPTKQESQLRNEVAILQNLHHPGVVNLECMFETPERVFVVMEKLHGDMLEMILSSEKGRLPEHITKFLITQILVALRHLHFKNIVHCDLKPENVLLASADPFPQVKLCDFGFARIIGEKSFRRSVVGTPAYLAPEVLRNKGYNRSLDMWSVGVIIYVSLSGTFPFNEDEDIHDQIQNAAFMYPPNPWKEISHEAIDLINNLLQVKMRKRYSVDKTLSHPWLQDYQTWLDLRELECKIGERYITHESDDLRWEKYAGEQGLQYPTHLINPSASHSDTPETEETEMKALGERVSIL

CDC42BPB/MRCKB = CDC42BPB/MRCKB (Homo sapiens, UniProt Q9Y5S2); settings: cited from earlier work
CIT = CIT (Homo sapiens, UniProt O14578); settings: cited from earlier work
ACVR1B = biological target: T2, ACVR1B (Homo sapiens, UniProt P36896); settings: cited from earlier work
T2 sequence (P36896 24-505): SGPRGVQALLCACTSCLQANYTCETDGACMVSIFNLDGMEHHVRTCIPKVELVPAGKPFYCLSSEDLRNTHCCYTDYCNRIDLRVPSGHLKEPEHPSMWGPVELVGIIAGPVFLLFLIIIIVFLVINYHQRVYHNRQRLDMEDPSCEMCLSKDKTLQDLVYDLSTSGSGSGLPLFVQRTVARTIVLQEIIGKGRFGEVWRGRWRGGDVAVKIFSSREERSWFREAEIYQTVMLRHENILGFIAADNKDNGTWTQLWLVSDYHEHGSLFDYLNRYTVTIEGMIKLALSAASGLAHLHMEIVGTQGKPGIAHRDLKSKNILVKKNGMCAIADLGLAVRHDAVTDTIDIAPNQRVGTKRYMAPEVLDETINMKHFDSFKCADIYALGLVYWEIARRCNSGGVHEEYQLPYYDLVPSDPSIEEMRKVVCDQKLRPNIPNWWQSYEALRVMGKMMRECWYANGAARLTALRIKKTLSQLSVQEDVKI

CSNK1E = CSNK1E (Homo sapiens, UniProt P49674); settings: cited from earlier work
PRKD3 = biological target: T3, PRKD3 (Homo sapiens, UniProt O94806); settings: cited from earlier work
T3 sequence (O94806 1-890): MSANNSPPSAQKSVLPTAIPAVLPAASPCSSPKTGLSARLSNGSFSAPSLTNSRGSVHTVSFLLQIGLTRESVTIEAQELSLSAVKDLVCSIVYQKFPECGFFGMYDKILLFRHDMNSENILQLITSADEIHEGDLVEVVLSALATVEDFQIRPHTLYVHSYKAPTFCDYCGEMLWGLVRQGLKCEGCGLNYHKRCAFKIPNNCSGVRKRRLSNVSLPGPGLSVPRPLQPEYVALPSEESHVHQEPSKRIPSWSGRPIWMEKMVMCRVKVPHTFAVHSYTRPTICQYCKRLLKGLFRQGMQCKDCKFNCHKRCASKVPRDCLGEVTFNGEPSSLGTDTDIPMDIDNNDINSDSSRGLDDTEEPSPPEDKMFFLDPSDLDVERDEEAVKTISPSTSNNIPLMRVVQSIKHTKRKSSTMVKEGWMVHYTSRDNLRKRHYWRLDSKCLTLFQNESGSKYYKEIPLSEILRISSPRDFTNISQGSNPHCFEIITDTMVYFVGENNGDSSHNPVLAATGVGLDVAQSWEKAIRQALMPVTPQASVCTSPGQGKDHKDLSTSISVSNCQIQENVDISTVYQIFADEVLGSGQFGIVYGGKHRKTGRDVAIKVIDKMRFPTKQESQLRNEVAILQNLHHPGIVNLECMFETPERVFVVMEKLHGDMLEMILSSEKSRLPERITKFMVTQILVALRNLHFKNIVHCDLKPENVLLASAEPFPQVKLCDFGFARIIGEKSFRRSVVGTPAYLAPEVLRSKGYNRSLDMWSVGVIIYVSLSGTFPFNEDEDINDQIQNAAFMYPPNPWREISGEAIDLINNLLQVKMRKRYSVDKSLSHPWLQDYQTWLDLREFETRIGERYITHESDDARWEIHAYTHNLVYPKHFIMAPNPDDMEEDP

CSNK1D = CSNK1D (Homo sapiens, UniProt P48730); settings: cited from earlier work
PIKFYVE = PIKFYVE (Homo sapiens, UniProt Q9Y2I7); settings: cited from earlier work
BMPR1B = BMPR1B (Homo sapiens, UniProt O00238); settings: cited from earlier work
MTOR = MTOR (Homo sapiens, UniProt P42345); settings: cited from earlier work
SH-SY5Y cells [2] = assay: AK (adenylate kinase) release ToxiLight cytotoxicity assay; settings: for AK: PKIS2 primary screening
Protocol: Total cell lysis with 5 µL 5% Triton-X 100 (Sigma-Aldrich, T8787) is used as a positive control for the assay and toxicity is expressed as a percentage of luminescence under DMSO conditions.

SH-SY5Y cells [3] = assay: Nuclear count from microscopy images (cellular growth and toxicity); settings: for Nuclear Count: PKIS2 primary screening

CDC42BPB/MRCKB, sequence (Q9Y5S2 whole entry): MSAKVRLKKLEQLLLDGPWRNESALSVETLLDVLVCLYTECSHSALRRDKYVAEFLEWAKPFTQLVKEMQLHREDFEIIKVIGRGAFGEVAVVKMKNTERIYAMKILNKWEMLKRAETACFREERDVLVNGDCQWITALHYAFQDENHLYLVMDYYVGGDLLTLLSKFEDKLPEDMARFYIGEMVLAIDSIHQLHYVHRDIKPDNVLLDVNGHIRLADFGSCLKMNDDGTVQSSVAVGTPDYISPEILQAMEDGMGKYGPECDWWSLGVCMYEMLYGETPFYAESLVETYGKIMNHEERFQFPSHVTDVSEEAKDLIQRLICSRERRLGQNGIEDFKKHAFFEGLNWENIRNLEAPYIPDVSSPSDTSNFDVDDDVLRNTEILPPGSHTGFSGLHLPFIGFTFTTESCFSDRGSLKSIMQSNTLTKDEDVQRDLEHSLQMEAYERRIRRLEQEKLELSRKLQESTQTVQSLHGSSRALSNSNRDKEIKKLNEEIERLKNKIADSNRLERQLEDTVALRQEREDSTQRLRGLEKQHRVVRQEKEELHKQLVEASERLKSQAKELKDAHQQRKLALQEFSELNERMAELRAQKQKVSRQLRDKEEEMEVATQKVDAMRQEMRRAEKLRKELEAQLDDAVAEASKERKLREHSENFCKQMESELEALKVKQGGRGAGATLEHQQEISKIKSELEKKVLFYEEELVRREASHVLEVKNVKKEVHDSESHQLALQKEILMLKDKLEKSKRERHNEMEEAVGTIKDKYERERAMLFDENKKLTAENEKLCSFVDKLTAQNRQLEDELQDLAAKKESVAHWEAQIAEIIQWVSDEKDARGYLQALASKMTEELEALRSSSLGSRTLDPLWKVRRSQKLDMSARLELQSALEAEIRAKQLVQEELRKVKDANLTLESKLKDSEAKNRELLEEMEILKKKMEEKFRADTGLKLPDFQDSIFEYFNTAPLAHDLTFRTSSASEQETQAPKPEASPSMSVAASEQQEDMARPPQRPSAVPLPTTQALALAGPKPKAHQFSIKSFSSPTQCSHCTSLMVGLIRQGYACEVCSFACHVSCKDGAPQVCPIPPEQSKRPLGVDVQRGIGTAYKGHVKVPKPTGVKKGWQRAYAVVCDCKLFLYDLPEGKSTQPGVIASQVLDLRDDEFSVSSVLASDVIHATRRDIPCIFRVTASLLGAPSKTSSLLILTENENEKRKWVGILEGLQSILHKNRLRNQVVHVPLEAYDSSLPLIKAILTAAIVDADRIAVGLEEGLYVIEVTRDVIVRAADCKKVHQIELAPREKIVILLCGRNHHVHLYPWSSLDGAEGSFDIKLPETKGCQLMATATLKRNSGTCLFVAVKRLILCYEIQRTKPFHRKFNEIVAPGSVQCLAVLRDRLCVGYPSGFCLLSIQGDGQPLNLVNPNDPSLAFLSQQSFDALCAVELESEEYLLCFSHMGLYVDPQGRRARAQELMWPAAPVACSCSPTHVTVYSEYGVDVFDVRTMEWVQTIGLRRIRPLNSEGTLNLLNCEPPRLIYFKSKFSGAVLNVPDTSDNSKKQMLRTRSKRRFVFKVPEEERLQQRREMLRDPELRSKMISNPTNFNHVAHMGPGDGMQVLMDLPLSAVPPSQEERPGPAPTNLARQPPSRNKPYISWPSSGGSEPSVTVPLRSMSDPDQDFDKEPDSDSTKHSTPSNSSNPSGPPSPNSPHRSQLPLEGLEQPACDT
PIKFYVE, sequence (Q9Y2I7 whole entry): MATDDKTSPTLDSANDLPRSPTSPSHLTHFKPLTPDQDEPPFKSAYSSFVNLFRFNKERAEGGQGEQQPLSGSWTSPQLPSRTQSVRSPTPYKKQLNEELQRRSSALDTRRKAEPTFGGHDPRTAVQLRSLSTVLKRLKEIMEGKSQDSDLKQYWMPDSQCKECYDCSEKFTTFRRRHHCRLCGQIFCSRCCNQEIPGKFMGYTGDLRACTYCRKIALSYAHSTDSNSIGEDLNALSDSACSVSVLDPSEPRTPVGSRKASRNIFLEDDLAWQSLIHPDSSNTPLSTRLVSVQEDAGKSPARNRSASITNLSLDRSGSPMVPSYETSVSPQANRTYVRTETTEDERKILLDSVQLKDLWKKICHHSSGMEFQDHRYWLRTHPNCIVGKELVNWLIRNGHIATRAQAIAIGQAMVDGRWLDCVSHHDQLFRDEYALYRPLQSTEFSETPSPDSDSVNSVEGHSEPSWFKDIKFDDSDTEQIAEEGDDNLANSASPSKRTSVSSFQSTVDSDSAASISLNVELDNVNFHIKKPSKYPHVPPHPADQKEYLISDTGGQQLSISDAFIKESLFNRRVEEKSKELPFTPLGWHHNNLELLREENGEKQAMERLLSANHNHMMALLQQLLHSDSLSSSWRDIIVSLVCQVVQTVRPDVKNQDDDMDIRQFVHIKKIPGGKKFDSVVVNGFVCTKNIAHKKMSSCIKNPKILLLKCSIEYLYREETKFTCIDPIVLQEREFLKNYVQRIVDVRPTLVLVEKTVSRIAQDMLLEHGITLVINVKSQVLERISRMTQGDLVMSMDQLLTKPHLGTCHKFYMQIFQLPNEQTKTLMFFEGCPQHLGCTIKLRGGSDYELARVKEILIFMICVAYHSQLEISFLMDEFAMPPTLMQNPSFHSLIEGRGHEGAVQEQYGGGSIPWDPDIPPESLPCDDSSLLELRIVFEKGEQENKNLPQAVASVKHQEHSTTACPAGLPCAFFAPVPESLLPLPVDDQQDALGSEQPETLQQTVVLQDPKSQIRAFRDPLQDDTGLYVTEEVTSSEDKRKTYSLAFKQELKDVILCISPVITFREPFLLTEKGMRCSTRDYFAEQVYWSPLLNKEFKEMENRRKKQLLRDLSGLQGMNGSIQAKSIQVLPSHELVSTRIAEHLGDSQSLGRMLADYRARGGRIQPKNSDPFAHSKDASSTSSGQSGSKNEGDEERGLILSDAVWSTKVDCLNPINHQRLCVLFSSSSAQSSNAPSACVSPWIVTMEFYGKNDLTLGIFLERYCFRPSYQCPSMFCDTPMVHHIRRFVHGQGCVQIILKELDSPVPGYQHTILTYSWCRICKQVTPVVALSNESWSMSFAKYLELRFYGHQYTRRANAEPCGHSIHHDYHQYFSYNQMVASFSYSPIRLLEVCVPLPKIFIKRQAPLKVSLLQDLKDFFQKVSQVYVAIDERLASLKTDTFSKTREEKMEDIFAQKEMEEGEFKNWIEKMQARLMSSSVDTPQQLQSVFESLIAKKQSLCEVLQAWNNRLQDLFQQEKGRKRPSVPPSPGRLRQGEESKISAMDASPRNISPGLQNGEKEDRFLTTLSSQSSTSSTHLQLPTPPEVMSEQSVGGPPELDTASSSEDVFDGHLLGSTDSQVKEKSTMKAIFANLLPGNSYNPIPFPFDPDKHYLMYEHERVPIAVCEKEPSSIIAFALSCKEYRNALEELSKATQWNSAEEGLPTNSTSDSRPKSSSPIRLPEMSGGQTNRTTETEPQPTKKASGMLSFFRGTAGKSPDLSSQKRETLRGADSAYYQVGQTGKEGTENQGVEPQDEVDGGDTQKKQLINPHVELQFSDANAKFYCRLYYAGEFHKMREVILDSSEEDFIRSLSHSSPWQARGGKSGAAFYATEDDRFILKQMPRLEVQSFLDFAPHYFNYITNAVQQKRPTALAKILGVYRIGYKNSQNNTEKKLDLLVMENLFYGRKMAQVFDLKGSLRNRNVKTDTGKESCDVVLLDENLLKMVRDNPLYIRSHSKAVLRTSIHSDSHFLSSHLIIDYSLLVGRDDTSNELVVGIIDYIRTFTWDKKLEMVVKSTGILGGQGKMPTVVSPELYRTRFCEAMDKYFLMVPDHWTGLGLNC
CSNK1E, sequence (P49674 whole entry): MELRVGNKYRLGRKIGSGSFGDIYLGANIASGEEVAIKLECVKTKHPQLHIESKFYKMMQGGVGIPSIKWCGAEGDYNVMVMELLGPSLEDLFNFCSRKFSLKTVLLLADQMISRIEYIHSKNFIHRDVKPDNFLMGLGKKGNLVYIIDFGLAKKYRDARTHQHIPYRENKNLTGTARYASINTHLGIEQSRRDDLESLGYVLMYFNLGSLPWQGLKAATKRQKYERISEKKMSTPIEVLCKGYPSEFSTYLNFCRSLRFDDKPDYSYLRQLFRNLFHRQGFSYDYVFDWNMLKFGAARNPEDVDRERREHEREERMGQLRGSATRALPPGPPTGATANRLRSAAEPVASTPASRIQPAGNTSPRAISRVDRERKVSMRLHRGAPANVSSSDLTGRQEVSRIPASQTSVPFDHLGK
CSNK1D, sequence (P48730 whole entry): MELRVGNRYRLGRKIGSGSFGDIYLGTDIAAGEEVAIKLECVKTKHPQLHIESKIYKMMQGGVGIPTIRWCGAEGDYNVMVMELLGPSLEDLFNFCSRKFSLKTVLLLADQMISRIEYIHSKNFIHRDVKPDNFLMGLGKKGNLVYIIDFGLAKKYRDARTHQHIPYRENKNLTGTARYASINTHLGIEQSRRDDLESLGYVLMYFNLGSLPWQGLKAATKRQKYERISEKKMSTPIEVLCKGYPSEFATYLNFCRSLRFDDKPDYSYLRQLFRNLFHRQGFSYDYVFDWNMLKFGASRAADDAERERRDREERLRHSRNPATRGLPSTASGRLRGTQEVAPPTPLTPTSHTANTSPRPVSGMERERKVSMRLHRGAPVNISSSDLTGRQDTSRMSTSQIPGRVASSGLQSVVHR
BMPR1B, sequence (O00238 14-502): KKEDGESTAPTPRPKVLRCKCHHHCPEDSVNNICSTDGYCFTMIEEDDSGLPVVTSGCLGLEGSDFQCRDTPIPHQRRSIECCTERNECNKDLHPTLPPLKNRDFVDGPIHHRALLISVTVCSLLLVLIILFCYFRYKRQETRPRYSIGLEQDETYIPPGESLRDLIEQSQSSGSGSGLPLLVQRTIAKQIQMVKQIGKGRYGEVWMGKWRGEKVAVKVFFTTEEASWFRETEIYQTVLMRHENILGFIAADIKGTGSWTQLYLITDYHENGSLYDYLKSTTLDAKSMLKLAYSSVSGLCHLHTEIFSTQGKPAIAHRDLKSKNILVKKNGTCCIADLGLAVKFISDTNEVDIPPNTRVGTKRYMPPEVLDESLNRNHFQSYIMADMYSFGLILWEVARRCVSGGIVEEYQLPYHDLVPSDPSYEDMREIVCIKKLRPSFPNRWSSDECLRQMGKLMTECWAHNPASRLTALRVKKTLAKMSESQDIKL

Row | Compound | TFE3 % (endogenous TFE3) [%] | nTFE3 % (endogenous TFE3; 24 h) [%] | DQ Intensity (SH-SY5Y cells [1]) | DQ Spot (SH-SY5Y cells [1]) | KINOMEscan binding PRKD1 (PRKD1) [%] | KINOMEscan binding CDC42BPB/MRCKB (CDC42BPB/MRCKB) [%] | KINOMEscan binding CIT (CIT) [%] | KINOMEscan binding ACVR1B (ACVR1B) [%] | KINOMEscan binding CSNK1E (CSNK1E) [%] | KINOMEscan binding PRKD3 (PRKD3) [%] | KINOMEscan binding CSNK1D (CSNK1D) [%] | KINOMEscan binding PIKFYVE (PIKFYVE) [%] | KINOMEscan binding BMPR1B (BMPR1B) [%] | KINOMEscan binding MTOR (MTOR) [%] | AK (SH-SY5Y cells [2]) | Nuclear Count (SH-SY5Y cells [3]) | TFE3 translocation (in words) (endogenous TFE3; 24 h treatment) | Summary (endogenous TFE3) | other results
1 | Cc1ccc(-c2nc(Nc3ccncc3)c3ccccc3n2)s1 [GSK189015] | 15.06 | 15 | 116.90 | 105.30 | 18 | 21 | 42 | 0 | 22 | 22 | 33 | 63 | 0 | 10 | 70.77 | 75.74 | – | – | –
2 | COc1ccc2nc(-c3cccc(C)n3)nc(Nc3ccncc3)c2c1 [GSK204919] | 7.07 | 7 | 144.99 | 139.38 | 92.4 | 94.1 | 73 | – | 64 | 100 | 49 | 81 | 0 | 43 | 106.43 | 98.76 | did not show TFEB and TFE3 activation | – | –
3 | Cc1cccc(-c2cc(Nc3ccncc3)c3ccccc3n2)n1 [GSK223675] | 9.28 | 9.2 | 136.99 | 120.77 | 91.1 | 0 | 23 | 88 | 50 | 100 | 14 | 23 | 0 | 7 | 117.83 | 85.07 | – | – | –
4 | Cc1cccc(-c2nc(C)cc(Nc3ccncc3)n2)n1 [GSK257997] | 9.74 | 9.7 | 78.64 | 86.70 | 78 | 81 | 23 | 78 | 42 | 85 | 43 | 27 | 0 | 13 | 66.29 | 128.02 | did not show TFEB and TFE3 activation | – | –
5 | Cc1cccc(-c2nc(Nc3ccncc3)c3ccccc3n2)n1 [GW855857] | 15.51 | 15.5 | 79.80 | 95.73 | 86 | 63 | 91.1 | 94.3 | 77 | 69 | 73 | 57 | 29 | 50 | 89.05 | 124.29 | – | – | –
6 | Cc1cccc(-c2nc(Nc3ccc4ncsc4c3)c3ccccc3n2)n1 [NK140] | – | – | – | – | – | – | – | – | – | – | – | – | – | – | – | – | modest TFEB and TFE3 translocation | Original | EC50 (endogenous TFE3; Homo sapiens, 24 h treatment, estimated, read-out: Cellular EC50 against TFE3): 0.65 µM; EC50 (endogenous TFE3; Homo sapiens, TFE3 assay, 24 h, µM, read-out: Best-Fit Values EC50 (converted)): 0.64 µM; TFE3 translocation (in words) (endogenous TFE3; 48 h treatment): induced; also recorded: elevated TFEB and TFE3 translocation; Best-Fit Values Span (endogenous TFE3; 24 h): 37.55; DQ Red BSA fluorescence intensity (in words) (SH-SY5Y cells [1]; SH-SY5Y, 24 h treatment): no increases in DQ Red BSA intensity; DQ Red BSA intensity (in words) (SH-SY5Y cells [1]; SH-SY5Y, 48 h treatment): additional increase in DQ Red BSA intensity; AK signal (in words) (SH-SY5Y cells [2]; SH-SY5Y, 24 h treatment): reduced; Cellular toxicity (AK release and nuclear count, in words) (SH-SY5Y cells [2]; SH-SY5Y, 24 h treatment): no increases in DQ Red BSA intensity or cellular toxicity; AK release (in words) (SH-SY5Y cells [2]; SH-SY5Y, 48 h treatment): without increases in AK; Nuclear count (in words) (SH-SY5Y cells [3]; SH-SY5Y, 48 h treatment): small reduction in nuclear count from 0.75 µM
7 | Cc1cccc(-c2nc(Nc3ccc4nn(C)cc4c3)c3ccccc3n2)n1 [NK167] | – | – | – | – | – | – | – | – | – | – | – | – | – | – | – | – | – | Weaker, Strong OT activity | EC50 (endogenous TFE3; TFE3 assay, 24 h, second EC50 of biphasic/bell-shaped fit or OT (off-target) activity, unit inferred, read-out: Best-Fit Values EC50 (converted)): 1.05 µM; EC50 (endogenous TFE3; TFE3 assay, 24 h, µM, read-out: Best-Fit Values EC50 (converted)): 1.04 µM
8 | Cc1cccc(-c2nc(Nc3ccncc3)c3ccccc3n2)n1 [NK215] | – | – | – | – | – | – | – | – | – | – | – | – | – | – | – | – | – | Weaker | EC50 (endogenous TFE3; Homo sapiens, 24 h, read-out: Best-Fit Values EC50): 2.04 µM; Best-Fit Values Span (endogenous TFE3; 24 h): 18.17; KINOMEscan PRKD1 (PRKD1; PRKD1, Published KINOMEscan, ref original PKIS2 published data): 86; KINOMEscan CDC42BPB/MRCKB (CDC42BPB/MRCKB): 63; KINOMEscan CIT (CIT; CIT, Published KINOMEscan, ref original PKIS2 published data): 91.1; KINOMEscan ACVR1B (ACVR1B): 94.3; KINOMEscan CSNK1E (CSNK1E; CSNK1E, Published KINOMEscan, ref original PKIS2 published data): 77; KINOMEscan PRKD3 (PRKD3; kinase PRKD3, Published KINOMEscan, ref original PKIS2 published data): 69; KINOMEscan CSNK1D (CSNK1D; CSNK1D, Published KINOMEscan, ref original PKIS2 published data): 73; KINOMEscan PIKFYVE (PIKFYVE; kinase PIKFYVE, Published KINOMEscan, ref original PKIS2 published data): 57; KINOMEscan BMPR1B (BMPR1B; BMPR1B, Published KINOMEscan, ref original PKIS2 published data): 29; KINOMEscan MTOR (MTOR; MTOR, Published KINOMEscan, ref original PKIS2 published data): 50
